Assays:
rat A1 receptors = target: T1, rat A1 receptors (Rattus norvegicus, UniProt P25099); assay: Radioligand binding at rat A1 adenosine receptors
T1 sequence (P25099 1-326): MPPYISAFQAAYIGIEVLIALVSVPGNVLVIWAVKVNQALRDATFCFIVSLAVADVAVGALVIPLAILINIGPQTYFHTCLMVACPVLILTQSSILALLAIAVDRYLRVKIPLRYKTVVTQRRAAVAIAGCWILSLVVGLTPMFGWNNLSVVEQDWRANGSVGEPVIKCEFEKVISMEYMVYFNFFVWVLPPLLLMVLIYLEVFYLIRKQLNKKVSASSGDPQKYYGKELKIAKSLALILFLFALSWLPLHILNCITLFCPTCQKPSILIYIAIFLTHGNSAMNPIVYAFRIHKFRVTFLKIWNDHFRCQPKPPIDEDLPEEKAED

A2A receptors = A2A receptors (Homo sapiens, UniProt P29274); assay: Radioligand binding at human A2A adenosine receptors, values marked (h); conditions: absence of ADA, read-out: K1 (nM), A2A (h)
human A2B receptor = target: T2, human A2B receptor (Homo sapiens, UniProt P29275); assay: Radioligand binding at human A2B receptor using [3H]ZM 241,385; conditions: at 50 μM, absence of ADA
T2 sequence (P29275 1-332): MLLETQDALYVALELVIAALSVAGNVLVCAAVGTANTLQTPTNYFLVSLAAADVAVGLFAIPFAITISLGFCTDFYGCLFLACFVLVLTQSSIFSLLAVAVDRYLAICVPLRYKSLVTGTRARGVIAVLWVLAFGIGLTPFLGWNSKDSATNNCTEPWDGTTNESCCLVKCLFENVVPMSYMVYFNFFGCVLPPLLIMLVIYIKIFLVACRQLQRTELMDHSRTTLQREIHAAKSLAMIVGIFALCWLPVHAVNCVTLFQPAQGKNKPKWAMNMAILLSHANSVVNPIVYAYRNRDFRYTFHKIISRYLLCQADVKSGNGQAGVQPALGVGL

human A3 receptors = target: T3, human A3 receptors (Homo sapiens, UniProt P0DMS8); assay: A3 adenosine receptor binding using [125I]AB-MECA, transfected CHO cell membranes; conditions: for Ki: human A3 receptors, absence of ADA, read-out: K1 (nM), hA3; for A1/A3: ratio of Ki at rat A1 to Ki at A3 (human, or rat where marked (r))
T3 sequence (P0DMS8 1-318): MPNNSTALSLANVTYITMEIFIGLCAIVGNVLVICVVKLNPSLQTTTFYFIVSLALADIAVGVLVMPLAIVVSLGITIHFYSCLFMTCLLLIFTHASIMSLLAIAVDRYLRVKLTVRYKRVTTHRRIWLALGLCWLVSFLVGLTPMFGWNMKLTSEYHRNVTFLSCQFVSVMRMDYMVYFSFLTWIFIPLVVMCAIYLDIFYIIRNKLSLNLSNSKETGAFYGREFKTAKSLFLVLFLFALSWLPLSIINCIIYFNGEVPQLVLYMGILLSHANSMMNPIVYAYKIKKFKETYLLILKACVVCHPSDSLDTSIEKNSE

[1] = tested on: adenosine deaminase (ADA); assay: Deamination by adenosine deaminase (ADA); type: biochemical; conditions: for relative rates of deamination: ADA, 5a set to 100
[2] = target: human and turkey P2Y1 receptors; conditions: competitive antagonist; cited from earlier work
P2X1 receptors = target: T4, P2X1 receptors (Homo sapiens, UniProt P51575); conditions: cited from earlier work
T4 sequence (P51575 1-399): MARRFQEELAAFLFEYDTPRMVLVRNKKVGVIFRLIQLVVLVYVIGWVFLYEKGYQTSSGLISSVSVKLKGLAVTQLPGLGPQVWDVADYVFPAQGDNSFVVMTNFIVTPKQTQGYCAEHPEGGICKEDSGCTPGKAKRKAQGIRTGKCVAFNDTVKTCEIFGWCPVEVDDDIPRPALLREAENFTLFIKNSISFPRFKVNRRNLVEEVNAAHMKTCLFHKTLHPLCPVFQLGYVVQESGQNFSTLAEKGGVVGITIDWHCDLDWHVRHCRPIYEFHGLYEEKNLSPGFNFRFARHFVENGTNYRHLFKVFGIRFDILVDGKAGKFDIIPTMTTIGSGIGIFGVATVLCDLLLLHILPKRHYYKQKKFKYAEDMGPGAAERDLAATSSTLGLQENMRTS

P2Y2 = P2Y2 (Homo sapiens, UniProt P41231); conditions: cited from earlier work
P2Y4 = P2Y4 (Homo sapiens, UniProt P51582); conditions: cited from earlier work
P2Y6 = P2Y6 (Homo sapiens, UniProt Q15077); conditions: cited from earlier work
[3] = target: T5, adenylyl cyclase-linked P2Y receptor in C6 glioma cells (Rattus norvegicus, UniProt Q9EPX4); conditions: cited from earlier work
T5 construct: at the adenylyl cyclase-linked P2Y receptor in C6 glioma cells; host or cells: C6 glioma cells (endogenous receptor)

[4] = tested on: novel avian P2Y receptor that inhibits adenylyl cyclase; conditions: cited from earlier work

Sequence of A2A receptors (P29274 whole entry): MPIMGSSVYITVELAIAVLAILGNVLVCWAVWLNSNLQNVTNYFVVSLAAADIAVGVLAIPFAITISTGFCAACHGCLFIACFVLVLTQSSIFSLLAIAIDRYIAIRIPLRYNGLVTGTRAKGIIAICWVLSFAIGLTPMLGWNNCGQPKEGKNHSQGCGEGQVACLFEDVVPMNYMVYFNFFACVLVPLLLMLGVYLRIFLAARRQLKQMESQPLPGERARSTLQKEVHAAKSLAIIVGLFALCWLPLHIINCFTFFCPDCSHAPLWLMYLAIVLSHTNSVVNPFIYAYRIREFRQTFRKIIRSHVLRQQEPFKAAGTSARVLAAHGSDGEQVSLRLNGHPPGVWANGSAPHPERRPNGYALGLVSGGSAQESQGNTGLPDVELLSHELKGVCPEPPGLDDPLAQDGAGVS
Sequence of P2Y4 (P51582 whole entry, species assumed): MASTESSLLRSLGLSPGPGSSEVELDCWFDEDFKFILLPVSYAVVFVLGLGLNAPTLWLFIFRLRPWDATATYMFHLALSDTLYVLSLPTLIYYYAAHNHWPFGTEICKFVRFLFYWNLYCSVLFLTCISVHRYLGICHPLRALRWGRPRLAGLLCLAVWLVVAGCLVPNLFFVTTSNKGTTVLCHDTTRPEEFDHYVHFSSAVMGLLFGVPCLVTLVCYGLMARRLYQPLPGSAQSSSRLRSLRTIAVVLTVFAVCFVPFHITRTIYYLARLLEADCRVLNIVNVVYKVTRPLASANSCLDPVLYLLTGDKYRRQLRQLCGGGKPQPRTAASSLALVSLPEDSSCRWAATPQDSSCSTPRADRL
Sequence of P2Y6 (Q15077 whole entry, species assumed): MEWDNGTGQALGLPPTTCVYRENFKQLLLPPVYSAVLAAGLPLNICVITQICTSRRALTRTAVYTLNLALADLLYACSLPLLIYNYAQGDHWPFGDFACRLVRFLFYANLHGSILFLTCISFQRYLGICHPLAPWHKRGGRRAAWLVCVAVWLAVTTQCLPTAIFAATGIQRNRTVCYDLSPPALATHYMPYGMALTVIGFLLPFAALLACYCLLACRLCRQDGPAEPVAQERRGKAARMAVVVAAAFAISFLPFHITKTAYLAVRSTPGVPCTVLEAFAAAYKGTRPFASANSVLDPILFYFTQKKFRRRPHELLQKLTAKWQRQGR
Sequence of P2Y2 (P41231 whole entry, species assumed): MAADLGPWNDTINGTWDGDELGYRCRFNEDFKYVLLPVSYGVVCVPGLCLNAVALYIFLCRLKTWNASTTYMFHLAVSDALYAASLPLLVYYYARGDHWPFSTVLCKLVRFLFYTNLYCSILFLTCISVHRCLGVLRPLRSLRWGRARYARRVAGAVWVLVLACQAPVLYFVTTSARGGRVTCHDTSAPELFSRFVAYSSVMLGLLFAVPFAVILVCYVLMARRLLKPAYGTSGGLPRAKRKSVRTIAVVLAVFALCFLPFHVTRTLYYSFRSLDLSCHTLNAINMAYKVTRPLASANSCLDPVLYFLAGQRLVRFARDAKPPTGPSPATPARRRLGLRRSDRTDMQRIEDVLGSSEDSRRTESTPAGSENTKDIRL
T5 sequence (Q9EPX4 whole entry): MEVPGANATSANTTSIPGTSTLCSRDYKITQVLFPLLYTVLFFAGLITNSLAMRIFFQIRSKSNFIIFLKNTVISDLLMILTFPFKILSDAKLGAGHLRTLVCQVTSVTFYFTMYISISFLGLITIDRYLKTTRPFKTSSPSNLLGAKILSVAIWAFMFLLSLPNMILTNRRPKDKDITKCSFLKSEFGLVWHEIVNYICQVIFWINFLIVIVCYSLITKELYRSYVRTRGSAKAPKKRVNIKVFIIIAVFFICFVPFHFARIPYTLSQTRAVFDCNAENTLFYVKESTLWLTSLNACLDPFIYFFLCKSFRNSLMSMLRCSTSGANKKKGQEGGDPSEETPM

| Ki (rat A1 receptors; rat A1 receptors, read-out: K1 (nM), rA1) [nM] | fold more potent than aristeromycin, 5b, in binding to A1 (rat A1 receptors; versus 5b) [fold] | Ki (A2A receptors) [nM] | % displacement, hA2B (human A2B receptor) [% at 50 μM^f] | ratio of affinities of N- to S-analogues at the A3 receptor (human A3 receptors; 5c versus 5d, human A3 receptor) [fold] | Ki (human A3 receptors) [nM] | A1/A3 (human A3 receptors) | fold more potent than aristeromycin, 5b, in binding to A3 (human A3 receptors; versus 5b) [fold] | relative rates of deamination [1] | % displacement, rA1 (rat A1 receptors; rat A1 receptors, at 100 μM) [% at 100 μM] | substrate of ADA, fold less ([1]; 5d compared with 5c) [fold] | Structure (SMILES) | Kb [2] [nM] | EC50 (P2X1 receptors) [nM] | activity at P2Y2 (P2Y2) | activity at P2Y4 (P2Y4) | activity at P2Y6 (P2Y6) | activity at adenylyl cyclase-linked P2Y receptor in C6 glioma cells [3] | activity at novel avian P2Y receptor [4] |
| --- | --- | --- | --- | --- | --- | --- | --- | --- | --- | --- | --- | --- | --- | --- | --- | --- | --- | --- |
| 1680 ± 80 | 4 | 22500 | 35 ± 2 | 150 | 404 ± 70 | 4.2 | 4500 | 0.58 | – | – | Nc1ncnc2c1ncn2C1C(O)C(O)C2(CO)CC12 (centres unmarked) [Compound 5c, 4-(6-amino-purin-9-yl)-1-hydroxymethyl-bicyclo[3.1.0]hexane-2,3-diol] | – | – | – | – | – | – | – |
| – | – | > 100000 | 20 ± 4 | – | 62500 | >1 | – | 0.010 | 15 | 100 | Nc1ncnc2c1ncn2C12CC1C(CO)C(O)C2O (racemic) [Compound 5d] | – | – | – | – | – | – | – |
| – | – | – | – | – | – | – | – | – | – | – | CNc1ncnc2c1ncn2[C@H]1C[C@H](OP(=O)(O)O)[C@@H](COP(=O)(O)O)O1 [Compound 1a, N6-methyl-2′-deoxyadenosine-3′,5′-bisphosphate] | ~100 | 1200 | inactive | inactive | inactive | inactive | inactive |

From US20060270629A1, “Methanocarba cycloalkyl nucleoside analogues” (Govt of the U.S.A., represented by the Secretary, Dept of …, priority 2000, published 2006)
